Where two headings read alike, the source gives them in different places.
Columns and labels:
SCLC strain SHP-77 = assay: MTT assay for cell survival, SCLC SHP-77 in vitro; format: cell-based, human; details: ED50 for killing of SCLC strain SHP-77 in vitro, 4 days, 0 = no detectable activity
A549 NSCLC cells = assay: Inhibition of A-549 tumor growth in vivo in nude mice; parameters: species or system athymic nude mice; key: an IC50 value of “0” represents no detectable anti-cancer activity for a drug in a given cell line; “Stim.” indicates the observation of a stimulatory activity on the growth of the cancer cell line; details: percent inhibition of tumor growth in nude mice; i.p. 5 mg/kg/every second day or 10 mg/kg/every fourth day
Protocol: Compounds having high in vitro cytotoxic activity were tested against implanted tumors in vivo. Athymic nude mice were implanted subcutaneously with suspensions (2 million SHP-77 SCLC cells, 1 million A549 NSCLC cells or 1.5 million PC3 PC cells) in Matrigel suspension. On the eighth day after tumor implantation groups of 5 mice bearing implants were injected intraperitoneally with the compounds being tested at 5 mg/kg/every second day or at 10 mg/kg/every fourth day; control animals were injected with an equal volume of isotonic saline. Less soluble compounds were initially dissolved in dimethyl sulfoxide (DMSO) and diluted with medium. In those cases the control injections contained the same concentration of DMSO. Tumor size was measured with a caliper three times per week. Tumor volume was calculated by the formula: Volume(cc)=3.14×(length)×(width)^2/6 At autopsy tumors were removed and weighed. Tumor inhibition was calculated on both weight and measurement basis. In each Table, an IC50 value of “0” represents no detectable anti-cancer activity for a drug in a given cell line and “Stim.” indicates the observation of a stimulatory activity on the growth of the cancer cell line.

NSCLC strain A-549 = assay: MTT assay for cell survival, NSCLC A-549 in vitro; format: cell-based, human; details: ED50 for killing of NSCLC strain A-549 in vitro, 4 days
PC3 PC cells = assay: Inhibition of PC3 tumor growth in vivo in nude mice; parameters: species or system athymic nude mice; key to PC3 In vivo % inhib.: an IC50 value of “0” represents no detectable anti-cancer activity for a drug in a given cell line; “Stim.” indicates the observation of a stimulatory activity on the growth of the cancer cell line; details: percent inhibition of tumor growth in nude mice; prostate cancer; i.p. 5 mg/kg/every second day or 10 mg/kg/every fourth day
Outline: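 Groups of 5 nude mice dosed i.p. at 10 mg/kg every fourth day or 5 mg/kg every second day, beginning 8 days after s.c. implantation of PC3 (1.5 million), A549 (1 million) or SHP-77 (2 million) cells in Matrigel; saline or DMSO-matched controls. Tumor weight at necropsy and caliper-derived volume both used to calculate inhibition.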

| Compound | IC50 (SCLC strain SHP-77; read-out: SHP-77 In vitro IC50) [µM] | A-549 In vivo % inhib. (A549 NSCLC cells) | IC50 (SCLC strain SHP-77; read-out: SCLC SHP-77 IC50) [µM] | IC50 (NSCLC strain A-549) [µM] | PC3 In vivo % inhib. (PC3 PC cells) |
| --- | --- | --- | --- | --- | --- |
| CC1(C)CC(NC(=O)C(Cc2ccc(OCc3c(Cl)cccc3Cl)cc2)NC(=O)C(c2ccccc2)C2CCCCC2)CC(C)(C)N1 (single isomer, unassigned) [M-1124#2, Chpa-OC2Y-Atmp] | 3.5 | 4.5% | – | – | – |
| CC1(C)CC(NC(=O)C(Cc2ccc(OCc3c(Cl)cccc3Cl)cc2)NC(=O)C(C)(c2ccccc2)c2ccccc2)CC(C)(C)N1 (stereo not shown) [Analog M-1126, 22Dp-OC2Y-Atmp] | 4 | 36% | – | – | – |
| O=C(NC1CCN(Cc2ccccc2)CC1)C(Cc1c(F)c(F)c(F)c(F)c1F)NC(=O)C(c1ccc(Cl)cc1)c1ccc(Cl)cc1 (stereo not shown) [Analog M-1188, Bcpa-F5F-Abzp] | 4.5 | 17% | – | – | – |
| O=C(C=Cc1c(F)c(F)c(F)c(F)c1F)NC(Cc1ccc2ccccc2c1)C(=O)N(Cc1ccccn1)Cc1ccccn1 (stereo not shown) [Analog M-1200, F5c-Nal-Dpic] | 5 | Stim | – | – | – |
| O=C(C=Cc1c(F)c(F)c(F)c(F)c1F)NC(Cc1ccc(-c2ccccc2)cc1)C(=O)N1CC2CC1CN2c1ccc(F)cc1 (stereo not shown) [Analog M-1272, F5c-Bip-Fpdh] | – | – | 10 | 22 | 71% |
| O=C(NC(Cc1ccc(-c2ccccc2)cc1)C(=O)N1CC2CC1CN2Cc1ccccc1)C(c1ccc(Cl)cc1)c1ccc(Cl)cc1 (stereo not shown) [Analog M-1276, Bcpa-Bip-Bdbh] | – | – | > 60 | 20 | 56% |
| O=C(C=Cc1c(F)c(F)c(F)c(F)c1F)NC(Cc1ccc(I)cc1)C(=O)N1CC2CC1CN2Cc1ccccc1 (stereo not shown) [Analog M-1280, F5c-PIF-Bdbh] | – | – | 10 | 20 | 40% |
| O=C(C=Cc1c(F)c(F)c(F)c(F)c1F)NC(Cc1ccc(I)cc1)C(=O)N1CCC2(CC1)OCCO2 (stereo not shown) [Analog M-1284, F5c-PIF-Dasd] | – | – | 22 | 20 | Stim. |
| CC1(C)CC(NC(=O)C(Cc2ccc(OCc3c(Cl)cccc3Cl)cc2)NC(=O)c2ccccn2)CC(C)(C)N1 (stereo not shown) [Analog M-1350, Pic-OC2Y-Atmp] | – | 36% | 6.1 | – | – |
| CC1(C)CC(NC(=O)[C@H](Cc2ccc(C#N)cc2)NC(=O)c2ccccn2)CC(C)(C)N1 [Analog M-1352, Pic-PCNF-Atmp] | – | 21% | > 60 | – | – |
| CC1(C)CC(NC(=O)C(Cc2ccc(OCc3c(Cl)cccc3Cl)cc2)NC(=O)Cc2c(F)c(F)c(F)c(F)c2F)CC(C)(C)N1 (stereo not shown) [Analog M-1356, F5pa-OC2Y-Atmp] | – | 0 | 4.4 | – | – |
| COc1ccc(C=CC(=O)NC(Cc2ccc(OCc3c(Cl)cccc3Cl)cc2)C(=O)NC2CC(C)(C)NC(C)(C)C2)cc1OC (stereo not shown) [Analog M-1362, 3,4Dmc-OC2Y-Atmp] | – | 21% | 4 | – | – |
| CC(C)=CCCC(C)CC(=O)NC(Cc1ccc(OCc2c(Cl)cccc2Cl)cc1)C(=O)NC1CC(C)(C)NC(C)(C)C1 (stereo not shown) [Analog M-1366, Dmo-OC2Y-Atmp] | – | 14% | 3.8 | – | – |
| CC1(C)CC(NC(=O)C(Cc2ccc(OCc3c(Cl)cccc3Cl)cc2)NC(=O)c2ccc(B(O)O)cc2)CC(C)(C)N1 (stereo not shown) [Analog M-1372, Bbz-OC2Y-Atmp] | – | 64% | > 60 | – | – |
| COc1ccc2cc(C(C)C(=O)NC(Cc3ccc(OCc4c(Cl)cccc4Cl)cc3)C(=O)NC3CC(C)(C)NC(C)(C)C3)ccc2c1 (stereo not shown) [Analog M-1380, Napr-OC2Y-Atmp] | – | – | 1.7 | 1.6 | 26% |
| CC1(C)CC(NC(=O)C(Cc2ccc(OCc3c(Cl)cccc3Cl)cc2)NC(=O)Cc2ccccc2Nc2c(Cl)cccc2Cl)CC(C)(C)N1 (stereo not shown) [Analog M-1382, Dfc-OC2Y-Atmp] | – | 46% | 2.9 | – | – |
| CC1(C)CC(NC(=O)C(Cc2ccc(OCc3c(Cl)cccc3Cl)cc2)NC(=O)c2ccc(NC(=N)N)cc2)CC(C)(C)N1 (stereo not shown) [Analog M-1390, Gbz-OC2Y-Atmp] | – | – | > 40 | 4.3 | Stim. |

— patent publication US7858349B2, “Anti-cancer compounds” (The Regents of the University of Colorado, priority 1999, dated 2010)
